In the assay the test system is Colo320DM. The assay can be described thus: Colo320DM cell viability. Format: cell-based, human. An excerpt:
In some embodiments, a polypeptide described herein inhibits binding of BLC9 to β-catenin when assessed in a cell-viability assay. In some embodiments, the cell-viability assay is a CellTiterGlo luminescent assay, wherein the viability of cells is quantitatively measured. Various cell lines, transformed cell lines or primary cells derived from a healthy subject or subject suffering from a disease can be used in this assay.

*1 amine or outer side, *2 acyl side, *3 side chain or, on linkers, in order; H or OH if unused. Where a SMILES comes first, the peptide text is derived from it. Bridges are numbered along the chain shown (N, C = ends). [ ]: non-standard residue; d: D form. 2Nal = N[C@@H](Cc1ccc2ccccc2c1)C(=O)O; d2Nal = N[C@H](Cc1ccc2ccccc2c1)C(=O)O; X1 = NC(=O)CCCCN(CC(=O)[*:2])[*:1]; NMeR = CN[C@@H](CCCNC(=N)N)C(=O)O; hArg = N=C(N)NCCCC[C@H](N)C(=O)O; tBuAla = CC(C)(C)C[C@H](N)C(=O)O; NMeQ = CN[C@@H](CCC(N)=O)C(=O)O; Cha = N[C@@H](CC1CCCCC1)C(=O)O; Cba = N[C@@H](CC1CCC1)C(=O)O; S5 = C=CCCC[C@](C)(N)C(=O)O; Ac4c = NC1(C(=O)O)CCC1; βAla = NCCC(=O)O Bounds are passed on as bounds.

As to `CC[C@H](C)[C@@H]1NC(=O)[C@@](C)(NC(=O)[C@H](CCCNC(=N)N)NC(=O)[C@H](CC(C)C)NC(=O)[C@@H](NC(=O)[C@H](CCC(N)=O)NC(=O)[C@H](CC(C)C)NC(=O)[C@H](CO)NC(=O)[C@H](CCCNC(=N)N)NC(=O)[C@H](CCC(N)=O)NC(=O)[C@H](CCCNC(=N)N)NC(=O)[C@H](Cc2c[nH]cn2)NC(C)=O)[C@@H](C)O)CCCC=CCCC[C@@](C)(C(=O)NC2(C(=O)N[C@@H](Cc3ccc4ccccc4c3)C(N)=O)CCC2)NC(=O)[C@H](CCCNC(=N)N)NC(=O)[C@H](CCC(N)=O)NC1=O` [SEQ ID NO: 176, HRQRSLQTLRXIQRX(AC4C)(2-Nal)] (Ac-HRQRSLQTLR[S5]IQR[S5][Ac4c][2Nal]-NH2; staple 11-15), the IC50 – broadly, the concentration that gives 50% inhibition – is above 5 µM. Compound `CC[C@H](C)[C@@H]1NC(=O)[C@@](C)(NC(=O)[C@H](CCCNC(=N)N)NC(=O)[C@H](CC(C)C)NC(=O)[C@@H](NC(=O)[C@H](CCC(N)=O)NC(=O)[C@H](CC(C)C)NC(=O)[C@H](CO)NC(=O)[C@H](CCCNC(=N)N)NC(=O)[C@H](CCC(=O)O)NC(=O)[C@H](CCCNC(=N)N)NC(=O)[C@H](Cc2c[nH]cn2)NC(=O)[C@H](CCC(=O)O)NC(=O)[C@H](CC(C)C)NC(=O)[C@H](CCC(N)=O)NC(C)=O)[C@@H](C)O)CCCC=CCCC[C@@](C)(C(=O)N[C@@H](CC(C)C)C(=O)N[C@@H](Cc2ccc3ccccc3c2)C(N)=O)NC(=O)[C@H](CCCNC(=N)N)NC(=O)[C@H](CCC(N)=O)NC1=O` [SEQ ID NO: 8, QLEHRERSLQTLRXIQRXL(2-Nal)] (Ac-QLEHRERSLQTLR[S5]IQR[S5]L[2Nal]-NH2; staple 14-18) returned an IC50 of 6.3 µM. Under `CC[C@H](C)[C@@H]1NC(=O)[C@@](C)(NC(=O)[C@H](CCCNC(=N)N)NC(=O)[C@H](CC(C)C)NC(=O)[C@@H](NC(=O)[C@H](CCC(N)=O)N(C)C(=O)[C@H](CC2CCCCC2)NC(=O)[C@H](CO)NC(=O)[C@H](CCCNC(=N)N)NC(=O)[C@H](CCC(N)=O)NC(=O)[C@H](CCCNC(=N)N)NC(=O)[C@H](Cc2c[nH]cn2)NC(C)=O)[C@@H](C)O)CCCC=CCCC[C@@](C)(C(=O)N[C@@H](CC2CCCCC2)C(=O)N[C@@H](Cc2ccc3ccccc3c2)C(N)=O)NC(=O)[C@H](CCCNC(=N)N)NC(=O)[C@H](CCC(N)=O)NC1=O` [SEQ ID NO: 185, HRQRS(Cha)(N-MeGln)TLRXIQRX(Cha)(2-Nal)] (Ac-HRQRS[Cha][NMeQ]TLR[S5]IQR[S5][Cha][2Nal]-NH2; staple 11-15) stands 1.9 µM; under `CC[C@H](C)[C@@H]1NC(=O)[C@@](C)(NC(=O)[C@H](CCCCNC(=N)N)NC(=O)[C@H](CC(C)C)NC(=O)[C@@H](NC(=O)[C@H](CCC(N)=O)NC(=O)[C@H](CC(C)C)NC(=O)[C@H](CO)NC(=O)[C@H](CCCNC(=N)N)NC(=O)[C@H](CCC(N)=O)NC(=O)[C@H](CCCNC(=N)N)NC(=O)[C@H](Cc2c[nH]cn2)NC(C)=O)[C@@H](C)O)CCCC=CCCC[C@@](C)(C(=O)N[C@@H](CC2CCC2)C(=O)N[C@@H](Cc2ccc3ccccc3c2)C(N)=O)NC(=O)[C@H](CCCNC(=N)N)NC(=O)[C@H](CCC(N)=O)NC1=O` [SEQ ID NO: 170, HRQRSLQTL(homoR)XIQRX(CBA)(2-Nal)] (Ac-HRQRSLQTL[hArg][S5]IQR[S5][Cba][2Nal]-NH2; staple 11-15), 5.17 µM. Turning to `CC[C@H](C)[C@@H]1NC(=O)[C@@](C)(NC(=O)[C@H](CCCNC(=N)N)NC(=O)[C@H](CC(C)C)NC(=O)[C@@H](NC(=O)[C@H](CCC(N)=O)NC(=O)[C@H](CC(C)C)NC(=O)[C@H](CO)NC(=O)[C@H](CCCNC(=N)N)NC(=O)[C@H](CCC(N)=O)NC(=O)[C@H](CCCNC(=N)N)NC(=O)[C@H](Cc2c[nH]cn2)NC(C)=O)[C@@H](C)O)CCCC=CCCC[C@@](C)(C(=O)N[C@@H](CC(C)(C)C)C(=O)N[C@@H](Cc2ccc3ccccc3c2)C(N)=O)NC(=O)[C@H](CCCNC(=N)N)NC(=O)[C@H](CCC(N)=O)NC1=O` [SEQ ID NO: 191, HRQRSLQTLRXIQRX(β-tBu-Ala)(2-Nal)] (Ac-HRQRSLQTLR[S5]IQR[S5][tBuAla][2Nal]-NH2; staple 11-15), the half-inhibitory concentration (IC50) came out at 2.87 µM. For the compound `CC[C@H](C)[C@@H]1NC(=O)[C@@](C)(NC(=O)[C@H](CCCNC(=N)N)NC(=O)[C@H](CC(C)C)NC(=O)[C@@H](NC(=O)[C@H](CCC(N)=O)NC(=O)[C@H](CC(C)C)NC(=O)[C@H](CO)NC(=O)[C@H](CCCNC(=N)N)NC(=O)[C@H](CCC(N)=O)NC(=O)[C@H](CCCNC(=N)N)NC(=O)[C@H](Cc2c[nH]cn2)NC(C)=O)[C@@H](C)O)CCCC=CCCC[C@@](C)(C(=O)N[C@@H](CC2CCCCC2)C(=O)N[C@H](Cc2ccc3ccccc3c2)C(N)=O)NC(=O)[C@H](CCCNC(=N)N)NC(=O)[C@H](CCC(N)=O)NC1=O` [SEQ ID NO: 188, HRQRSLQTLRXIQRX(Cha)(2DNal)] (Ac-HRQRSLQTLR[S5]IQR[S5][Cha][d2Nal]-NH2; staple 11-15), the IC50 is 3.28 µM. The IC50 values of the last two compounds are within 1.5-fold of each other. As for `CC[C@H](C)[C@@H]1NC(=O)[C@@](C)(NC(=O)[C@H](CCCNC(=N)N)NC(=O)[C@H](CC(C)C)NC(=O)[C@@H](NC(=O)[C@H](CCC(N)=O)NC(=O)[C@H](CC(C)C)NC(C)=O)[C@@H](C)O)CCCC=CCCC[C@@](C)(C(=O)N[C@@H](CC2CCC2)C(=O)N[C@@H](Cc2ccc3ccccc3c2)C(N)=O)NC(=O)[C@H](CCCNC(=N)N)NC(=O)[C@H](CCC(N)=O)NC1=O` [SEQ ID NO: 107, LQTLRXIQRX(CBA)(2-Nal)] (Ac-LQTLR[S5]IQR[S5][Cba][2Nal]-NH2; staple 6-10), the IC50 was above 5 µM. Take `CC[C@H](C)[C@@H]1NC(=O)[C@@](C)(NC(=O)[C@H](CCCNC(=N)N)NC(=O)[C@H](CC(C)C)NC(=O)[C@@H](NC(=O)[C@H](CCC(N)=O)NC(=O)[C@H](CC(C)C)NC(=O)[C@H](CO)NC(=O)[C@H](CCCNC(=N)N)NC(=O)[C@H](CCC(N)=O)NC(=O)[C@H](CCCNC(=N)N)N(C)C(=O)[C@H](Cc2c[nH]cn2)NC(C)=O)[C@@H](C)O)CCCC=CCCC[C@@](C)(C(=O)N[C@@H](CC2CCC2)C(=O)N[C@@H](Cc2ccc3ccccc3c2)C(N)=O)NC(=O)[C@H](CCCNC(=N)N)NC(=O)[C@H](CCC(N)=O)NC1=O` (single isomer, unassigned) [SEQ ID NO: 166, H(N-methylR)QRSLQTLRXIQRX(CBA)(2-Nal)]: the IC50 was 4.17 µM.

`CC[C@H](C)[C@@H]1NC(=O)[C@@](C)(NC(=O)[C@H](CCCNC(=N)N)NC(=O)[C@H](CC(C)C)NC(=O)[C@]2(C)CCCC=CCCC[C@](C)(NC(=O)[C@H](CCC(=O)O)NC(=O)[C@H](CCCNC(=N)N)NC(C)=O)C(=O)N[C@@H](CO)C(=O)N[C@@H](CC(C)C)C(=O)N[C@@H](CCC(N)=O)C(=O)N2)CCCC=CCCC[C@@](C)(C(=O)N[C@@H](CC(C)C)C(=O)N[C@@H](Cc2ccc3ccccc3c2)C(=O)NCCC(=O)NCCC(N)=O)NC(=O)[C@H](CCCNC(=N)N)NC(=O)[C@H](CCC(N)=O)NC1=O` [SEQ ID NO: 40, REXSLQXLRZIQRZL(2-Nal)(β-Ala)(β-Ala)] (Ac-RE[S5]SLQ[S5]LR[S5]IQR[S5]L[2Nal][βAla][βAla]-NH2; staple 3-7, 10-14) had an IC50 of 0.83 µM. For the compound `CC[C@H](C)[C@@H]1NC(=O)[C@@](C)(NC(=O)[C@H](CCCNC(=N)N)NC(=O)[C@H](CC(C)C)NC(=O)[C@@H](NC(=O)CN(CCCCC(N)=O)C(=O)[C@H](CC(C)C)NC(=O)[C@H](CO)NC(=O)[C@H](CCCNC(=N)N)NC(=O)[C@H](CCC(N)=O)NC(=O)[C@H](CCCNC(=N)N)NC(=O)[C@H](Cc2c[nH]cn2)NC(C)=O)[C@@H](C)O)CCCC=CCCC[C@@](C)(C(=O)N[C@@H](CC2CCC2)C(=O)N[C@@H](Cc2ccc3ccccc3c2)C(N)=O)NC(=O)[C@H](CCCNC(=N)N)NC(=O)[C@H](CCC(N)=O)NC1=O` [SEQ ID NO: 169, HRQRSL(peptoid-Q)TLRXIQRX(CBA)(2-Nal)] (Ac-HRQRSL[X1]TLR[S5]IQR[S5][Cba][2Nal]-NH2; staple 11-15), the IC50 was determined as 4.98 µM. `CC[C@H](C)[C@@H]1NC(=O)[C@@](C)(NC(=O)[C@H](CCCNC(=N)N)NC(=O)[C@H](CC(C)C)NC(=O)[C@@H](NC(=O)[C@H](CCC(N)=O)NC(=O)[C@H](CC2CCC2)NC(=O)[C@H](CO)NC(=O)[C@H](CCCNC(=N)N)NC(=O)[C@H](CCC(N)=O)NC(=O)[C@H](CCCNC(=N)N)NC(=O)[C@H](Cc2c[nH]cn2)NC(C)=O)[C@@H](C)O)CCCC=CCCC[C@@](C)(C(=O)N[C@@H](CC2CCC2)C(=O)N[C@@H](Cc2ccc3ccccc3c2)C(N)=O)NC(=O)[C@H](CCCNC(=N)N)NC(=O)[C@H](CCC(N)=O)NC1=O` [SEQ ID NO: 156, HRQRS(CBA)QTLRXIQRX(CBA)(2-Nal)] (Ac-HRQRS[Cba]QTLR[S5]IQR[S5][Cba][2Nal]-NH2; staple 11-15): the IC50 stood at 2.63 µM. For `CC[C@H](C)[C@@H]1NC(=O)[C@@](C)(NC(=O)[C@H](CCCNC(=N)N)NC(=O)[C@H](CC2CCCCC2)NC(=O)[C@]2(C)CCCC=CCCC[C@](C)(NC(=O)[C@H](CCCNC(=N)N)NC(=O)[C@H](CCC(N)=O)NC(=O)[C@H](CCCNC(=N)N)NC(=O)[C@H](Cc3c[nH]cn3)NC(C)=O)C(=O)N[C@@H](CC(C)C)C(=O)N[C@@H](CCC(N)=O)C(=O)N2)CCCC=CCCC[C@@](C)(C(=O)N[C@@H](CC2CCCCC2)C(=O)N[C@@H](Cc2ccc3ccccc3c2)C(N)=O)NC(=O)[C@H](CCCNC(=N)N)NC(=O)[C@H](CCC(N)=O)NC1=O` [SEQ ID NO: 92, HRQRXLQX(Cha)RZIQRZ(Cha)(2-Nal)] (Ac-HRQR[S5]LQ[S5][Cha]R[S5]IQR[S5][Cha][2Nal]-NH2; staple 5-8, 11-15), the 50% inhibitory concentration (IC50) is 2.54 µM. `CC[C@H](C)[C@@H]1NC(=O)[C@@](C)(NC(=O)[C@H](CCCNC(=N)N)NC(=O)[C@H](CC(C)C)NC(=O)[C@@H](NC(=O)[C@H](CCC(N)=O)NC(=O)[C@H](CC(C)C)NC(=O)[C@H](CO)NC(=O)[C@H](CCCNC(=N)N)NC(=O)[C@H](CCC(N)=O)NC(=O)[C@H](CCCNC(=N)N)NC(=O)[C@H](Cc2c[nH]cn2)NC(C)=O)[C@@H](C)O)CCCC=CCCC[C@@](C)(C(=O)N[C@@H](CC2CCCCC2)C(=O)N[C@@H](Cc2ccc3ccccc3c2)C(N)=O)NC(=O)[C@H](CCCNC(=N)N)N(C)C(=O)[C@H](CCC(N)=O)NC1=O` [SEQ ID NO: 190, HRQRSLQTLRXIQ(N-MeArg)X(Cha)(2-Nal)] (Ac-HRQRSLQTLR[S5]IQ[NMeR][S5][Cha][2Nal]-NH2; staple 11-15) showed an IC50 of 5.89 µM.

For the origin of these results see patent US11591365B2, “BCL9 peptides and variants thereof” (WntRx Pharmaceuticals Inc., priority 2017, dated 2023).
